Laboratory results taken from patent publication US10618903B2, “Heteroaryl substituted aminopyridine compounds” (BRISTOL-MYERS SQUIBB COMPANY, priority 2015, dated 2020).

What was measured:
IRAK4 = IRAK4 (Homo sapiens (Human), UniProt Q9NWZ3); assay: IRAK4 Inhibition Assay; format: biochemical; settings: ATP 500 μM; IRAK4 0.6 nM
In short: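 Mobility-shift kinase assay: 0.6 nM IRAK4, 500 μM ATP, 1.5 μM fluorescent peptide, 60 min, room temperature. Percent inhibition was normalised between enzyme-free and DMSO-only wells.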

[1] = tested on: IL-6 levels in human whole blood stimulated with a TLR2 agonist; assay: IRAK4 Whole Blood Assay (lipoteichoic acid/TLR2-stimulated IL-6); format: cell-based; settings: lipoteichoic acid 10 μg/mL, IL-6 readout
In short: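 IL-6 was quantified by cytometric bead assay in supernatants of human blood (ACD-A) stimulated for 5 h with lipoteichoic acid at 10 μg/mL final. Compound exposure preceded stimulation for 60 min at 37 °C, 5% CO2.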

Caco Permeability Assay = format: in vitro ADME; settings: human, Caco-2, Caco-2 cells, 3 μM compound
Method: Thirteen to 27 days prior to assay, Caco-2 cells were seeded onto collagen-coated polycarbonate filter membranes in 24-well transwell plates at a density of 1.45×10^5 cells/cm^2, approximately 4.8×10^4 cells per well. The cells were grown in a culture medium consisting of DMEM supplemented with 10% fetal bovine serum, 10 mM HEPES, 1% nonessential amino acids, 2 mM L-glutamine, 100 U/mL penicillin-G, and 100 μg/mL streptomycin. The culture medium was replaced every 3 days and the cells were maintained at 37° C. in a 95% relative humidity and 5% CO2 atmosphere. The cells were evaluated for tight junction formation just prior to assay. The test compound was solubilized to 10 mM in 100% DMSO and diluted to 3 μM in assay buffer. Permeability studies were initiated by adding 200 μL assay buffer plus/minus compound to the apical transwell compartment and 600 μL assay buffer plus/minus compound to the basolateral compartment of the 24-well transwell low-binding cluster plate. For apical-to-basolateral (A to B) permeability (absorptive direction), buffer containing compound was placed in the apical compartment (donor wells), while buffer alone was placed in the corresponding basolateral compartments (receiver wells). For basolateral-to-apical (B to A) permeability (secretive direction), buffer containing compound was placed in the basolateral compartment (donor wells), while buffer alone was placed in the corresponding apical compartments (receiver wells). Transwells were then incubated for 2 hours at 37° C. in a 95% relative humidity and 5% CO2 atmosphere with gentle agitation. Following incubation, 100 μL was removed from each apical and basolateral compartment and transferred to 96-well low binding plates that had been previously loaded with 100 µL/well of acetonitrile containing 250 nM propranolol, 250 nM diclofenac, and 500 nM tolbutamide as internal standards. The samples were subsequently analyzed by LC-MS/MS to determine concentrations of compound.

IRAK4, sequence (Q9NWZ3 whole entry): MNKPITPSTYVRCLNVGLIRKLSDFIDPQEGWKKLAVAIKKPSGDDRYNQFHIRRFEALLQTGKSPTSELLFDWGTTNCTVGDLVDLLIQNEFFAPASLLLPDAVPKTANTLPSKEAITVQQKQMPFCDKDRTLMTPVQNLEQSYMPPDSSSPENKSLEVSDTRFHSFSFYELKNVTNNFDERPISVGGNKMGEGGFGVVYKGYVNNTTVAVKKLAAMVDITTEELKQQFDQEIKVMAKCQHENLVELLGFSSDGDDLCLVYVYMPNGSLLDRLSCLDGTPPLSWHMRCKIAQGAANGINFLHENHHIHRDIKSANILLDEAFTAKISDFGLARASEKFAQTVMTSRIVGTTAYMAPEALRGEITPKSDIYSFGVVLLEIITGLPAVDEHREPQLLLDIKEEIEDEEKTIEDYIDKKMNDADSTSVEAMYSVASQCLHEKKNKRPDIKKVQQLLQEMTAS

SMILES: CC(C)(O)[C@H](F)CNC(=O)c1cnc(-c2cnn3cc(C#N)cnc23)cc1NC1CC1 [Example 92, (R)-6-(6-cyanopyrazolo[1,5-a]pyrimidin-3-yl)-4-(cyclopropylamino)-N-(2-fluoro-3-hydroxy-3-methylbutyl) nicotinamide]
- IC50 (IRAK4): 20 nM
- EC50 ([1]; Homo sapiens): 720 nM
- Papp at 2 h, 3 µM (Caco Permeability Assay): 7.4 ×10⁻⁶ cm/s

SMILES: CCNc1cc(-c2cnn3cc(C#N)cnc23)ncc1C(=O)NC[C@@H](F)C(C)(C)O [Example 93, (R)-6-(6-cyanopyrazolo[1,5-a]pyrimidin-3-yl)-4-(ethylamino)-N-(2-fluoro-3-hydroxy-3-methylbutyl)nicotinamide]
- IC50 (IRAK4): 6 nM
- EC50 ([1]; Homo sapiens): 1660 nM
- Papp at 2 h, 3 µM (Caco Permeability Assay): 7.2 ×10⁻⁶ cm/s

SMILES: CC[C@@H](C)Nc1cc(-c2cnn3cc(C#N)cnc23)ncc1C(=O)NC[C@@H](F)C(C)(C)O [Example 97, 4-(((R)-sec-butyl)amino)-6-(6-cyanopyrazolo[1,5-a]pyrimidin-3-yl)-N—((R)-2-fluoro-3-hydroxy-3-methylbutyl)nicotinamide]
- IC50 (IRAK4): 4 nM
- EC50 ([1]; Homo sapiens): 1600 nM
- Papp at 2 h, 3 µM (Caco Permeability Assay): 8 ×10⁻⁶ cm/s

SMILES: CC(C)Nc1cc(-c2cnn3cc(C#N)cnc23)ncc1C(=O)N[C@H]1CC[C@H](C(C)(C)O)CC1 [Example 104, 6-(6-cyanopyrazolo[1,5-a]pyrimidin-3-yl)-N-((1r,4r)-4-(2-hydroxypropan-2-yl)cyclohexyl)-4-(isopropylamino)nicotinamide]
- IC50 (IRAK4): 7 nM
- EC50 ([1]; Homo sapiens): 800 nM
- Papp at 2 h, 3 µM (Caco Permeability Assay): 16.2 ×10⁻⁶ cm/s

SMILES: CC(C)(O)[C@H](F)CNC(=O)c1cnc(-c2cnn3cc(C#N)cnc23)cc1N[C@@H]1CCC[C@@H]1F [Example 105, 6-(6-cyanopyrazolo[1,5-a]pyrimidin-3-yl)-N—((R)-2-fluoro-3-hydroxy-3-methylbutyl)-4-(((1R,2S)-2-fluorocyclopentyl)amino) nicotinamide]
- IC50 (IRAK4): 7 nM
- EC50 ([1]; Homo sapiens): 240 nM
- Papp at 2 h, 3 µM (Caco Permeability Assay): 8.6 ×10⁻⁶ cm/s

SMILES: CC(CCF)Nc1cc(-c2cnn3cc(C#N)cnc23)ncc1C(=O)NC[C@@H](F)C(C)(C)O (stereo partly drawn) [Example 106, 6-(6-cyanopyrazolo[1,5-a]pyrimidin-3-yl)-N—((R)-2-fluoro-3-hydroxy-3-methylbutyl)-4-((4-fluorobutan-2-yl)amino)nicotinamide]
- IC50 (IRAK4): 4 nM
- EC50 ([1]; Homo sapiens): 1030 nM
- Papp at 2 h, 3 µM (Caco Permeability Assay): 7 ×10⁻⁶ cm/s

SMILES: CNC(=O)c1ccc(Nc2cc(-c3cnn4cc(C#N)cnc34)ncc2C(=O)NC[C@@H](F)C(C)(C)O)cc1 [Example 110, (R)-6-(6-cyanopyrazolo[1,5-a]pyrimidin-3-yl)-N-(2-fluoro-3-hydroxy-3-methylbutyl)-4-((4-(methylcarbamoyl)phenyl)amino) nicotinamide]
- IC50 (IRAK4): 3 nM
- EC50 ([1]; Homo sapiens): 270 nM
- Papp at 2 h, 3 µM (Caco Permeability Assay): < 1.5 ×10⁻⁶ cm/s

SMILES: COc1cnc(N2CC[C@@H](Nc3cc(-c4cnn5cc(C#N)cnc45)ncc3C(=O)NC[C@@H](F)C(C)(C)O)C2)nc1 [Example 115, 6-(6-cyanopyrazolo[1,5-a]pyrimidin-3-yl)-N—((R)-2-fluoro-3-hydroxy-3-methylbutyl)-4-(((R)-1-(5-methoxypyrimidin-2-yl)pyrrolidin-3-yl)amino)nicotinamide]
- IC50 (IRAK4): 6 nM
- EC50 ([1]; Homo sapiens): 2030 nM
- Papp at 2 h, 3 µM (Caco Permeability Assay): < 1.5 ×10⁻⁶ cm/s

SMILES: CC(C)Nc1cc(-c2cnn3cc(F)cnc23)ncc1C(=O)NC[C@@H](F)C(C)(C)O [Example 130, (R)—N-(2-fluoro-3-hydroxy-3-methylbutyl)-6-(6-fluoropyrazolo[1,5-a]pyrimidin-3-yl)-4-(isopropylamino)nicotinamide]
- IC50 (IRAK4): 17 nM
- EC50 ([1]; Homo sapiens): 1890 nM
- Papp at 2 h, 3 µM (Caco Permeability Assay): 22.1 ×10⁻⁶ cm/s

SMILES: CC(C)(O)[C@H](F)CNC(=O)c1cnc(-c2cnc3cc(Cl)cnn23)cc1NC1COC1 [Example 141, (R)-6-(7-chloroimidazo[1,2-b]pyridazin-3-yl)-N-(2-fluoro-3-hydroxy-3-methylbutyl)-4-(oxetan-3-ylamino)nicotinamide]
- IC50 (IRAK4): 4 nM
- EC50 ([1]; Homo sapiens): 490 nM
- Papp at 2 h, 3 µM (Caco Permeability Assay): 5.2 ×10⁻⁶ cm/s

SMILES: CC(C)Nc1cc(-c2cnc3cc(Cl)cnn23)ncc1C(=O)NC[C@@H](F)C(C)(C)O [Example 142, (R)-6-(7-chloroimidazo[1,2-b]pyridazin-3-yl)-N-(2-fluoro-3-hydroxy-3-methylbutyl)-4-(isopropylamino)nicotinamide]
- IC50 (IRAK4): 3 nM
- EC50 ([1]; Homo sapiens): 100 nM
- Papp at 2 h, 3 µM (Caco Permeability Assay): 19 ×10⁻⁶ cm/s

SMILES: CC(C)(O)[C@H](F)CNC(=O)c1cnc(-c2cnc3cc(Cl)cnn23)cc1NC1CCOCC1 [Example 143, (R)-6-(7-chloroimidazo[1,2-b]pyridazin-3-yl)-N-(2-fluoro-3-hydroxy-3-methylbutyl)-4-((tetrahydro-2H-pyran-4-yl)amino)nicotinamide]
- IC50 (IRAK4): 2 nM
- EC50 ([1]; Homo sapiens): 1080 nM
- Papp at 2 h, 3 µM (Caco Permeability Assay): 8.2 ×10⁻⁶ cm/s

SMILES: CC(C)(O)[C@H](F)CNC(=O)c1cnc(-c2cnc3cc(Cl)cnn23)cc1NC1CC1 [Example 144, (R)-6-(7-chloroimidazo[1,2-b]pyridazin-3-yl)-4-(cyclopropylamino)-N-(2-fluoro-3-hydroxy-3-methylbutyl)nicotinamide]
- IC50 (IRAK4): 3 nM
- EC50 ([1]; Homo sapiens): 230 nM
- Papp at 2 h, 3 µM (Caco Permeability Assay): 13.4 ×10⁻⁶ cm/s

SMILES: CC(C)Nc1cc(-c2cnc3cc(C#N)cnn23)ncc1C(=O)NC[C@@H](F)C(C)(C)O [Example 145, (R)-6-(7-cyanoimidazo[1,2-b]pyridazin-3-yl)-N-(2-fluoro-3-hydroxy-3-methylbutyl)-4-(isopropylamino)nicotinamide]
- IC50 (IRAK4): 2 nM
- EC50 ([1]; Homo sapiens): 240 nM
- Papp at 2 h, 3 µM (Caco Permeability Assay): 12.3 ×10⁻⁶ cm/s

SMILES: CC(C)(O)[C@H](F)CNC(=O)c1cnc(-c2cnc3cc(C#N)cnn23)cc1NC1CCOCC1 [Example 146, (R)-6-(7-cyanoimidazo[1,2-b]pyridazin-3-yl)-N-(2-fluoro-3-hydroxy-3-methylbutyl)-4-((tetrahydro-2H-pyran-4-yl)amino)nicotinamide]
- IC50 (IRAK4): 2 nM
- EC50 ([1]; Homo sapiens): 150 nM
- Papp at 2 h, 3 µM (Caco Permeability Assay): < 1.5 ×10⁻⁶ cm/s

SMILES: CC(C)(O)[C@H](F)CNC(=O)c1cnc(-c2cnc3cc(C#N)cnn23)cc1NC1COC1 [Example 147, (R)-6-(7-cyanoimidazo[1,2-b]pyridazin-3-yl)-N-(2-fluoro-3-hydroxy-3-methylbutyl)-4-(oxetan-3-ylamino) nicotinamide]
- IC50 (IRAK4): 3 nM
- EC50 ([1]; Homo sapiens): 90 nM
- Papp at 2 h, 3 µM (Caco Permeability Assay): < 1.5 ×10⁻⁶ cm/s

SMILES: Cc1cnn2c(-c3cc(NC(C)C)c(C(=O)NC[C@@H](F)C(C)(C)O)cn3)cnc2c1 [Example 148, (R)—N-(2-fluoro-3-hydroxy-3-methylbutyl)-4-(isopropylamino)-6-(7-methylimidazo[1,2-b]pyridazin-3-yl)nicotinamide]
- IC50 (IRAK4): 7 nM
- EC50 ([1]; Homo sapiens): 350 nM
- Papp at 2 h, 3 µM (Caco Permeability Assay): 8.9 ×10⁻⁶ cm/s

SMILES: CC[C@H](F)CNc1cc(-c2cnn3cc(Cl)cnc23)ncc1C(=O)NC[C@@H](F)C(C)(C)O [Example 158, 6-(6-chloropyrazolo[1,5-a]pyrimidin-3-yl)-N—((R)-2-fluoro-3-hydroxy-3-methylbutyl)-4-(((S)-2-fluorobutyl)amino)nicotinamide]
- IC50 (IRAK4): 5 nM
- EC50 ([1]; Homo sapiens): 870 nM
- Papp at 2 h, 3 µM (Caco Permeability Assay): 14.8 ×10⁻⁶ cm/s

SMILES: CC(C)(O)[C@H](F)CNC(=O)c1cnc(-c2cnn3cc(Cl)cnc23)cc1NCCC(F)(F)F [Example 161, (R)-6-(6-chloropyrazolo[1,5-a]pyrimidin-3-yl)-N-(2-fluoro-3-hydroxy-3-methylbutyl)-4-((3,3,3-trifluoropropyl)amino)nicotinamide]
- IC50 (IRAK4): 6 nM
- EC50 [1]: 610 nM
- Papp at 2 h, 3 µM (Caco Permeability Assay): 15.3 ×10⁻⁶ cm/s

SMILES: CC(C)(O)[C@H](F)CNC(=O)c1cnc(-c2cnn3cc(Cl)cnc23)cc1NCC(F)F [Example 163, (R)-6-(6-chloropyrazolo[1,5-a]pyrimidin-3-yl)-4-((2,2-difluoroethyl)amino)-N-(2-fluoro-3-hydroxy-3-methylbutyl) nicotinamide]
- IC50 (IRAK4): 6 nM
- EC50 ([1]; Homo sapiens): 760 nM
- Papp at 2 h, 3 µM (Caco Permeability Assay): 19.1 ×10⁻⁶ cm/s

SMILES: CC(C)(O)[C@H](F)CNC(=O)c1cnc(-c2cnn3cc(Cl)cnc23)cc1NCCCO [Example 164, (R)-6-(6-chloropyrazolo[1,5-a]pyrimidin-3-yl)-N-(2-fluoro-3-hydroxy-3-methylbutyl)-4-((3-hydroxypropyl)amino)nicotinamide]
- IC50 (IRAK4): 11 nM
- EC50 ([1]; Homo sapiens): 270 nM
- Papp at 2 h, 3 µM (Caco Permeability Assay): < 1.5 ×10⁻⁶ cm/s

SMILES: CC(C)Nc1cc(-c2cnn3cc(C#N)cnc23)ncc1C(=O)NCCC(C)(C)C#N [Example 169, N-(3-cyano-3-methylbutyl)-6-(6-cyanopyrazolo[1,5-a]pyrimidin-3-yl)-4-(isopropylamino)nicotinamide]
- IC50 (IRAK4): 8 nM
- EC50 ([1]; Homo sapiens): 650 nM
- Papp at 2 h, 3 µM (Caco Permeability Assay): 14.2 ×10⁻⁶ cm/s
